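GI50 marks 50% less growth. TGI denotes the concentration required for complete inhibition of growth.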
Experiments:
Test in all cases: NCI-60 cell line screen, 384-well format
SF-268 CNS = system: SF-268 CNS
SK-MEL-28 melanoma = system: SK-MEL-28 melanoma
SW-620 colon = system: SW-620 colon
K-562 leukemia = system: K-562 leukemia
A549 NSCLC = system: A549 NSCLC
PC-3 prostate = system: PC-3 prostate
SF-539 CNS = system: SF-539 CNS
LOX IMVI melanoma = system: LOX IMVI melanoma
HT29 colon = system: HT29 colon
HCT-15 colon = system: HCT-15 colon
UO-31 renal = system: UO-31 renal
HOP-92 NSCLC = system: HOP-92 NSCLC
RPMI-8226 leukemia = system: RPMI-8226 leukemia
NCI-H522 lung = system: NCI-H522 lung
HOP-62 NSCLC = system: HOP-62 NSCLC
MOLT-4 leukemia = system: MOLT-4 leukemia
DU-145 prostate = system: DU-145 prostate
SF-295 CNS = system: SF-295 CNS
SN12C renal = system: SN12C renal
NCI-H322M lung = system: NCI-H322M lung
IGROV1 ovarian = system: IGROV1 ovarian
OVCAR-4 ovarian = system: OVCAR-4 ovarian
SK-MEL-5 melanoma = system: SK-MEL-5 melanoma
MDA-MB-468 breast = system: MDA-MB-468 breast
NCI-H226 lung = system: NCI-H226 lung
TK-10 renal = system: TK-10 renal
SK-OV-3 ovarian = system: SK-OV-3 ovarian
COLO 205 colon = system: COLO 205 colon
M14 melanoma = system: M14 melanoma
MDA-MB-231 breast = system: MDA-MB-231 breast
U251 glioblastoma = system: U251 glioblastoma
KM12 colon = system: KM12 colon
NCI/ADR-RES ovarian = system: NCI/ADR-RES ovarian
ACHN renal = system: ACHN renal
MALME-3M melanoma = system: MALME-3M melanoma
MDA-MB-435 melanoma = system: MDA-MB-435 melanoma
UACC-62 melanoma = system: UACC-62 melanoma
NCI-H460 NSCLC = system: NCI-H460 NSCLC
HCC-2998 colon = system: HCC-2998 colon
HS 578T breast = system: HS 578T breast
HCT-116 colon = system: HCT-116 colon
OVCAR-3 ovarian = system: OVCAR-3 ovarian
786-0 renal = system: 786-0 renal
SK-MEL-2 melanoma = system: SK-MEL-2 melanoma
UACC-257 melanoma = system: UACC-257 melanoma
SR leukemia = system: SR leukemia
RXF 393 renal = system: RXF 393 renal
BT-549 breast = system: BT-549 breast
HL-60(TB) leukemia = system: HL-60(TB) leukemia
MCF7 breast = system: MCF7 breast
SNB-19 CNS = system: SNB-19 CNS
OVCAR-5 ovarian = system: OVCAR-5 ovarian
CCRF-CEM leukemia = system: CCRF-CEM leukemia
NCI-H23 lung = system: NCI-H23 lung
A498 renal = system: A498 renal
EKVX NSCLC = system: EKVX NSCLC
T-47D breast = system: T-47D breast
CAKI-1 renal = system: CAKI-1 renal
SNB-75 CNS = system: SNB-75 CNS

## NCCCCN(Cc1nc2ccccc2[nH]1)[C@H]1CCCc2cccnc21
SF-268 CNS
  GI50: 5.51 µM
  TGI: 35.1 µM
SK-MEL-28 melanoma
  GI50: 11.4 µM
  TGI: 24.3 µM
SW-620 colon
  GI50: 10.4 µM
  TGI: 34.1 µM
K-562 leukemia
  GI50: 10.2 µM
  TGI: 22.5 µM
A549 NSCLC
  GI50: 9.68 µM
  TGI: 28.4 µM
PC-3 prostate
  GI50: 6.25 µM
  TGI: 40.8 µM
SF-539 CNS
  GI50: 9.07 µM
  TGI: 21.3 µM
LOX IMVI melanoma
  GI50: 9.28 µM
  TGI: 23 µM
HT29 colon
  GI50: 3.6 µM
  TGI: 13.4 µM
HCT-15 colon
  GI50: 13.9 µM
  TGI: 32.2 µM
UO-31 renal
  GI50: 13.4 µM
  TGI: 29.1 µM
HOP-92 NSCLC
  GI50: 2.7 µM
  TGI: 13.4 µM
RPMI-8226 leukemia
  GI50: 5.63 µM
  TGI: 19.1 µM
NCI-H522 lung
  GI50: 2.68 µM
  TGI: 18.6 µM
HOP-62 NSCLC
  GI50: 3.94 µM
  TGI: 19 µM
MOLT-4 leukemia
  GI50: 1.31 µM
  TGI: 2.84 µM
DU-145 prostate
  GI50: 7.23 µM
  TGI: > 100 µM
SF-295 CNS
  GI50: 8.81 µM
  TGI: 22.1 µM
SN12C renal
  GI50: 9.33 µM
  TGI: 52.2 µM
NCI-H322M lung
  GI50: 4.64 µM
  TGI: 24.6 µM
IGROV1 ovarian
  GI50: 5.7 µM
  TGI: 19.1 µM
OVCAR-4 ovarian
  GI50: 4.66 µM
  TGI: 26.2 µM
SK-MEL-5 melanoma
  GI50: 2.62 µM
  TGI: 15.9 µM
MDA-MB-468 breast
  GI50: 2.81 µM
  TGI: 8.14 µM
NCI-H226 lung
  GI50: 10.4 µM
  TGI: 23.5 µM
TK-10 renal
  GI50: 10.6 µM
  TGI: 23.6 µM
SK-OV-3 ovarian
  GI50: 9.63 µM
  TGI: 40.4 µM
COLO 205 colon
  GI50: 2.35 µM
  TGI: 5.73 µM
M14 melanoma
  GI50: 5.75 µM
  TGI: 18.4 µM
MDA-MB-231 breast
  GI50: 4.42 µM
  TGI: 23.6 µM
U251 glioblastoma
  GI50: 6.5 µM
  TGI: 25.9 µM
KM12 colon
  GI50: 6.23 µM
  TGI: 33.8 µM
NCI/ADR-RES ovarian
  GI50: 16 µM
  TGI: 31.6 µM
ACHN renal
  GI50: 17.3 µM
  TGI: 35.9 µM
MALME-3M melanoma
  GI50: 11.9 µM
  TGI: 24.3 µM
MDA-MB-435 melanoma
  GI50: 7.39 µM
  TGI: 23.3 µM
UACC-62 melanoma
  GI50: 10.1 µM
  TGI: 22.3 µM
NCI-H460 NSCLC
  GI50: 4.47 µM
  TGI: 18.1 µM
HCC-2998 colon
  GI50: 4.63 µM
  TGI: 18.4 µM
HS 578T breast
  GI50: 4.57 µM
  TGI: 18.4 µM
HCT-116 colon
  GI50: 5.3 µM
  TGI: 20.5 µM
OVCAR-3 ovarian
  GI50: 2.2 µM
  TGI: 15.9 µM
786-0 renal
  GI50: 8.34 µM
  TGI: 31.3 µM
SK-MEL-2 melanoma
  GI50: 20.3 µM
  TGI: 34.7 µM
UACC-257 melanoma
  GI50: 7.89 µM
  TGI: 20.5 µM
SR leukemia
  GI50: 1.3 µM
  TGI: 2.59 µM
RXF 393 renal
  GI50: 4.56 µM
  TGI: 21.4 µM
BT-549 breast
  GI50: 7.45 µM
  TGI: 28.5 µM
HL-60(TB) leukemia
  GI50: 1.35 µM
  TGI: 2.82 µM
MCF7 breast
  GI50: 7.6 µM
  TGI: 25.9 µM
SNB-19 CNS
  GI50: 18 µM
  TGI: > 100 µM
OVCAR-5 ovarian
  GI50: 5.13 µM
  TGI: 28.2 µM
CCRF-CEM leukemia
  GI50: 5.43 µM
  TGI: 18.5 µM
NCI-H23 lung
  GI50: 4.94 µM
  TGI: 22.9 µM
A498 renal
  GI50: 14.7 µM
  TGI: 44.2 µM
EKVX NSCLC
  GI50: 8.83 µM
  TGI: 24.5 µM
T-47D breast
  GI50: 12.7 µM
  TGI: 32.1 µM
CAKI-1 renal
  GI50: 7.89 µM
  TGI: 22.5 µM
SNB-75 CNS
  GI50: 4.2 µM
  TGI: 18.1 µM

From PubChem BioAssay (NCI)
